According to patent US20170071944A1, “MODULATORS OF TOLL-LIKE RECEPTORS FOR THE TREATMENT OF HIV” (Gilead Sciences, Inc., priority 2015, published 2017):
Where “and” joins values, the source holds several entries; their conditions need not be identical. Equal values may be shown once.

Tests used:
Format in all cases: cell-based, human
HIV-infected CD4 T cells [1] = experiment: PGT121 antibody-mediated killing of HIV-infected CD4 T cells, monocyte effector model; details: monocytes from 1 subject, 11 or 33 nM, 1 day
Text: (§1) NK cells and monocytes mediate antibody-dependent cellular cytotoxicity (ADCC) and antibody-dependent cellular phagocytosis (ADCP) respectively. To assess the ability of the compound of Example 15 to enhance ADCC and ADCP, two models were developed using monocytes or PBMCs as effector cells and HIV-infected CD4 T cells as target cells. PBMCs were isolated from 3 healthy subjects' leukaphereses (AllCells, participant IDs A4593, A4596, A4606), as described above. CD4 T cells were isolated from PBMCs using negative selection magnetic beads (EasySep, StemCell Technologies). CD4 T cells were spinfected with HIV-1 isolate 92HT593 (NIH AIDS Reagent Program) and cultured for 5 days at 37° C. For the PBMC model, autologous PBMCs were cultured for 5 days with vehicle control (DMSO) or Example 15 at 100 or 1000 nM. […] Marker staining was measured by flow cytometry using a LSR Fortessa (BD Biosciences) and analyzed with FlowJo software (TreeStar). The percent killing was determined by calculating the reduction of p24+ CD4+ T cells mediated by PGT121 antibody relative to a no antibody control.
(§2) PBMCs (FIG. 3) or monocytes (FIG. 4) were treated with DMSO or TLR8 agonist for 5 days (FIG. 3) or 1 day (FIG. 4) and then co-cultured for 1 day with autologous HIV-infected CD4 T cells−/+anti-HIV Env antibody PGT121. Reductions in % p24+ CD4+ T cells, relative to no antibody control, were measured by FACS. […]

HIV-infected CD4 T cells [2] = experiment: PGT121 antibody-mediated killing of HIV-infected CD4 T cells, PBMC effector model
Text: as §1, §2

[3] = tested on: HIV-specific polyfunctional CD8 T cells; experiment: Induced HIV-specific polyfunctional CD8+ T cells in PBMC cultures from HIV-1 infected subjects on cART; details: for Median HIV-specific polyfunctional CD8 T cells (% proliferating CD8+ cells double positive for IFN-γ and TNF-α): 5 subjects, vehicle 0.73% (Example 15 group), 0.13% (Example 98 group)
[4] = tested on: HIV-1 expression in PBMC cultures from HIV-1 infected subjects on cART; experiment: Induced HIV-1 expression in PBMC cultures from HIV-1 infected subjects on cART (HIV-1 RNA in culture supernatant, COBAS TaqMan); details: for Fold HIV-1 Activation, Geometric Mean with ≧2-Fold-Activation / Fold HIV-1 Activation, Range with ≧2-Fold-Activation: N = 12 subjects
Method: In some experiments, IL-15, the TLR8 modulating compound of Example 15 or the combination of IL-15 and Example 15 were used at the indicated concentrations (Table 4). The cultures were maintained in the presence of antivirals (elvitegravir and efavirenz at 100 nM each) to prevent viral spread and amplification in order to measure the quantity of virus produced (latency reversal) by the TLR8 modulating compounds. At the end of the incubation period, cell-free culture supernatants were harvested and HIV-1 RNA levels were quantified by the COBAS® AmpliPrep/COBAS®TaqMan HIV-1 Test, v2.0 (Roche).
In each table, fold-activation is calculated as a ratio of HIV-1 RNA copies per ml of cell culture supernatants from TLR8 agonist treated samples and DMSO treated controls. Geometric mean fold-activation from three independent incubation samples for each condition of each subject's PBMCs.
To assess if the latency reversal induced by TLR8 agonism could further potentiate latency reversal by a separate mechanisms, we treated cells as described above with IL-15, Example 15, or a combination of IL-15 and Example 15 (Table 4).

[5] = Example 15 1000 nM and/or IL-15 1 nM, subjects 205-210

For CCCC[C@H](CO)Nc1nc(N)nc2cccnc12 [Example 15], the “PGT121-mediated killing of HIV-infected CD4+ T cells compared to the DMSO control” value (HIV-infected CD4 T cells [1]) was “markedly enhanced”, the “PGT121-mediated killing of HIV-infected CD4+ T cells, geometric mean area under the curve (AUC)” value (HIV-infected CD4 T cells [2]; PBMCs from 3 subjects pre-treated 5 days at 100 nM, 108 for the DMSO control) was 172 and the “Increase of AUC of PGT121-mediated killing compared to DMSO control” value (HIV-infected CD4 T cells [2]; PBMCs from 3 subjects, 100 nM) was 60%. The “Patients in whom increases were seen” value ([3]; 100 nM) was 3 of 5, the “Median HIV-specific polyfunctional CD8 T cells (% proliferating CD8+ cells double positive for IFN-γ and TNF-α)” value ([3]; 100 nM with HIV peptide pool) was 0.99% and the “Patients in whom increases were seen” value ([3]; 1000 nM) was 4 of 5. The “Increase of median HIV-specific polyfunctional CD8 T cells” value ([3]; 1000 nM combined with the HIV specific peptide pool, p<0.05) was 2.7 fold, the “Median HIV-specific polyfunctional CD8 T cells (% proliferating CD8+ cells double positive for IFN-γ and TNF-α)” value ([3]; 1000 nM with HIV peptide pool) was 2.01% and the “Fold HIV-1 Activation, Geometric Mean with ≧2-Fold-Activation” value ([4]; 10 nM) was 4.6 fold. The “Fold HIV-1 Activation, Range with ≧2-Fold-Activation” value (shortened to “Fold HIV-1 Activation, Range”) ([4]; 10 nM) was 2.2-20.1 fold, the “N with ≧2-Fold-Activation (%)” value ([4]; 10 nM, subjects 172-183) was “(42) %” and the “Fold HIV-1 Activation, Geometric Mean with ≧2-Fold-Activation” value ([4]; 100 nM) was 4.8 fold. For the same molecule, the “Fold HIV-1 Activation, Range” value ([4]; 100 nM) was 2.2-10.1 fold, the “N with ≧2-Fold-Activation (%)” value ([4]; 100 nM, subjects 172-183) was “(33) %” and the “Fold HIV-1 Activation, Geometric Mean with ≧2-Fold-Activation” value ([4]; 1,000 nM) was 3.4 fold. The “Fold HIV-1 Activation, Range” value ([4]; 1,000 nM) was 2.4-5.7 fold, the “N with ≧2-Fold-Activation (%)” value ([4]; 1,000 nM, subjects 172-183) was “(58) %” and the “Fold HIV-1 Activation, Geometric Mean with ≧2-Fold-Activation” value ([4]; 10, 100, or 1000 nM) was 4.4 fold. For the same molecule, the “Fold HIV-1 Activation, Range” value ([4]; 10, 100, or 1000 nM) was 2.2-20.1 fold, the “Fold HIV-1 Activation” value ([4]; Example 15 10 nM, 4 days, individual subjects 172-183, vs DMSO) was 2.6 fold and 2.2 fold and 4.7 fold and 1.2 fold and 1.9 fold and 1.3 fold and 0.3 fold and 0.5 fold and 1.0 fold and 4.1 fold and 20.1 fold and 0.8 fold and the “Fold HIV-1 Activation” value ([4]; Example 15 100 nM, 4 days, individual subjects 172-183, vs DMSO) was 3.8 fold and 6.6 fold and 2.2 fold and 1.5 fold and 1.0 fold and 0.5 fold and 0.2 fold and 0.1 fold and 0.7 fold and 1.8 fold and 10.1 fold and 1.3 fold. For the same molecule, the “Fold HIV-1 Activation, Geometric Mean” value ([4]; Example 15 1000 nM and/or IL-15 1 nM, N = 6 subjects) was 2.1 fold, the “Fold HIV-1 Activation” value ([4]; Example 15 1000 nM and/or IL-15 1 nM, individual subjects 205-210, vs DMSO) was 4.7 fold and 0.8 fold and 9.7 fold and 2.0 fold and 1.9 fold and 0.6 fold and the “N with ≧2-Fold-Activation” value [4, 5] was 3 of 6. For the same molecule, the “N with ≧2-Fold-Activation (%)” value [4, 5] was 50% and the “Fold HIV-1 Activation” value ([4]; Example 15 1,000 nM, 4 days, individual subjects 172-183, vs DMSO) was 2.7 fold and 2.4 fold and 3.3 fold and 1.2 fold and 4.7 fold and 0.3 fold (2×) and 3.4 fold and 3.0 fold and 1.3 fold and 1.6 fold and 5.7 fold.
